How the values were obtained:
Test in all cases: KINOMEscan
[1] = target: T1, ABL1(F317L)-nonphosphorylated (Homo sapiens, UniProt P00519, F317L); assay type: binding; conditions: read-out: Percent Control
T1 construct: purchased Eurofins DiscoverX KINOMEscan (scanMAX 468)

[2] = target: T2, YANK2 (Homo sapiens, UniProt Q9NY57); assay type: binding; conditions: read-out: Percent Control
T2 construct: purchased Eurofins (KINOMEscan, DiscoverX)

[3] = target: T3, WNK1 (Homo sapiens, UniProt Q9H4A3); assay type: binding; conditions: read-out: Percent Control
T3 construct: purchased Eurofins DiscoverX KINOMEscan (scanMAX 468)

[4] = target: T4, NIK (Homo sapiens, UniProt Q99558); assay type: binding; conditions: read-out: Percent Control
T4 construct: purchased Eurofins DiscoverX KINOMEscan (scanMAX 468)

[5] = target: T5, TIE1 (Homo sapiens, UniProt P35590); assay type: binding; conditions: read-out: Percent Control
T5 construct: purchased Eurofins DiscoverX KINOMEscan (scanMAX 468)

[6] = system: FLT3(ITD,F691L); assay type: binding, human; conditions: 1 μM
[7] = target: T6, WEE1 (Homo sapiens, UniProt P30291); assay type: binding; conditions: read-out: Percent Control
T6 construct: purchased Eurofins DiscoverX KINOMEscan (scanMAX 468)

[8] = target: T7, ABL1(T315I)-phosphorylated (Homo sapiens, UniProt P00519, T315I); assay type: binding; conditions: read-out: Percent Control
T7 construct: purchased Eurofins DiscoverX KINOMEscan (scanMAX 468)

[9] = target: T8, AAK1 (Homo sapiens, UniProt Q2M2I8); assay type: binding; conditions: read-out: Percent Control
T8 construct: purchased Eurofins DiscoverX KINOMEscan (scanMAX 468)

[10] = target: T9, DDR2 (Homo sapiens, UniProt Q16832); assay type: binding; conditions: read-out: Percent Control
T9 construct: purchased Eurofins DiscoverX KINOMEscan (scanMAX 468)
T9 sequence (Q16832 22-855): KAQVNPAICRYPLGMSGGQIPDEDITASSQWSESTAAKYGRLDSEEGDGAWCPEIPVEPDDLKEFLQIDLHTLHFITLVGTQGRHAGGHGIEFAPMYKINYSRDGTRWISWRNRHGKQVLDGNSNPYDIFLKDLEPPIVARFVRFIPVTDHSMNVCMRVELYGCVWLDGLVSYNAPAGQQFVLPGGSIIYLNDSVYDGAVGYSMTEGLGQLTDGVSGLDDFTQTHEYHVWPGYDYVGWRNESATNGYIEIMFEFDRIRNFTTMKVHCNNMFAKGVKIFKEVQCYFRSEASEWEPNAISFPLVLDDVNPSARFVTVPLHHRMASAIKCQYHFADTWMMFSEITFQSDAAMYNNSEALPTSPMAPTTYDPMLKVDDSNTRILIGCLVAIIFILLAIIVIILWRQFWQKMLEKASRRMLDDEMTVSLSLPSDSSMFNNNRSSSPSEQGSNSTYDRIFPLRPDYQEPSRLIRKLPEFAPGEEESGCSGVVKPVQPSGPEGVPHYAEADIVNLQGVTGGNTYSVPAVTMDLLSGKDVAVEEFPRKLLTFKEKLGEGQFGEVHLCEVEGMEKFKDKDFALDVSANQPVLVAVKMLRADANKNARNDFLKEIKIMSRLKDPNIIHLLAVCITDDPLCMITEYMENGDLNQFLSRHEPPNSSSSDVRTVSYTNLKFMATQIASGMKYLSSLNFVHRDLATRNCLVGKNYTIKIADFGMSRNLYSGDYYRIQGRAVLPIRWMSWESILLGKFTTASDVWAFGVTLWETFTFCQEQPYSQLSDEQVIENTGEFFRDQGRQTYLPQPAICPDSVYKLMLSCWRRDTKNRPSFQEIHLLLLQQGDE

[11] = target: T10, SNARK (Homo sapiens, UniProt Q9H093); assay type: binding; conditions: read-out: Percent Control
T10 construct: purchased Eurofins DiscoverX KINOMEscan (scanMAX 468)

[12] = target: T11, FGFR1 (Homo sapiens, UniProt P11362); assay type: binding; conditions: read-out: Percent Control
T11 construct: purchased Eurofins DiscoverX KINOMEscan (scanMAX 468)

[13] = target: T12, PAK7 (Homo sapiens, UniProt Q9P286); assay type: binding; conditions: read-out: Percent Control
T12 construct: purchased Eurofins DiscoverX KINOMEscan (scanMAX 468)

[14] = target: T13, MAPKAPK5 (Homo sapiens, UniProt Q8IW41); assay type: binding; conditions: read-out: Percent Control
T13 construct: purchased Eurofins DiscoverX KINOMEscan (scanMAX 468)

[15] = target: T14, PIK3CB (Homo sapiens, UniProt P42338); assay type: binding; conditions: read-out: Percent Control
T14 construct: purchased Eurofins DiscoverX KINOMEscan (scanMAX 468)

[16] = target: T15, RSK1(Kin.Dom.1-N-terminal) (Homo sapiens, UniProt Q15418); assay type: binding; conditions: read-out: Percent Control
T15 construct: RSK1(Kin.Dom.1-N-terminal); purchased Eurofins DiscoverX KINOMEscan (scanMAX 468)

[17] = target: T16, RPS6KA4(Kin.Dom.2-C-terminal) (Homo sapiens, UniProt O75676); assay type: binding; conditions: read-out: Percent Control
T16 construct: RPS6KA4(Kin.Dom.2-C-terminal); purchased Eurofins DiscoverX KINOMEscan (scanMAX 468)

[18] = target: T17, KIT(A829P) (Homo sapiens, UniProt P10721, A829P); assay type: binding; conditions: read-out: Percent Control
T17 construct: purchased Eurofins DiscoverX KINOMEscan (scanMAX 468)

[19] = target: T18, CSF1R-autoinhibited (Homo sapiens, UniProt P07333); assay type: binding; conditions: read-out: Percent Control
T18 construct: purchased Eurofins DiscoverX KINOMEscan (scanMAX 468)

[20] = target: T19, MEK6 (Homo sapiens, UniProt P52564); assay type: binding; conditions: read-out: Percent Control
T19 construct: purchased Eurofins DiscoverX KINOMEscan (scanMAX 468)

[21] = target: T20, BRK (Homo sapiens, UniProt Q13882); assay type: binding; conditions: read-out: Percent Control
T20 construct: purchased Eurofins DiscoverX KINOMEscan (scanMAX 468)
T20 sequence (Q13882 whole entry): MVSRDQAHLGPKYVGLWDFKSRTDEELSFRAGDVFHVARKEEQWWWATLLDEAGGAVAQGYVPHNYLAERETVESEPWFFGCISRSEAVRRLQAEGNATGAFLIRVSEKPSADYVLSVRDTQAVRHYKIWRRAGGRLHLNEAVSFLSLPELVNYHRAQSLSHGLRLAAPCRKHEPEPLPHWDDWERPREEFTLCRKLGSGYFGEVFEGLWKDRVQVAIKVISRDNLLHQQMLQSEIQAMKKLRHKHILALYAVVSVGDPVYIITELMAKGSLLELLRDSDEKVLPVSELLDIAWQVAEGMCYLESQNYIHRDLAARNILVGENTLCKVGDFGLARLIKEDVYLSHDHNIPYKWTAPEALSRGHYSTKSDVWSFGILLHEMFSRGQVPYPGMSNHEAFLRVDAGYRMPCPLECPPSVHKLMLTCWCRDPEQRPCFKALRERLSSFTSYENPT

[22] = target: T21, YES (Homo sapiens, UniProt P07947); assay type: binding; conditions: read-out: Percent Control
T21 construct: purchased Eurofins (KINOMEscan, DiscoverX)

[23] = target: T22, EGFR(E746-A750del) (Homo sapiens, UniProt P00533, DEL746-750); assay type: binding; conditions: read-out: Percent Control
T22 construct: purchased Eurofins DiscoverX KINOMEscan (scanMAX 468)

[24] = target: T23, PRKD1 (Homo sapiens, UniProt Q15139); assay type: binding; conditions: read-out: Percent Control
T23 construct: purchased Eurofins DiscoverX KINOMEscan (scanMAX 468)

[25] = target: T24, ABL1(F317L)-phosphorylated (Homo sapiens, UniProt P00519, F317L); assay type: binding; conditions: read-out: Percent Control
T24 construct: purchased Eurofins DiscoverX KINOMEscan (scanMAX 468)

[26] = target: T25, ALK(L1196M) (Homo sapiens, UniProt Q9UM73, L1196M); assay type: binding; conditions: read-out: Percent Control
T25 construct: purchased Eurofins DiscoverX KINOMEscan (scanMAX 468)

[27] = target: T26, PIK4CB (Homo sapiens, UniProt Q9UBF8); assay type: binding; conditions: read-out: Percent Control
T26 construct: purchased Eurofins DiscoverX KINOMEscan (scanMAX 468)

[28] = target: T27, BIKE (Homo sapiens, UniProt Q9NSY1); assay type: binding; conditions: read-out: Percent Control
T27 construct: purchased Eurofins DiscoverX KINOMEscan (scanMAX 468)

[29] = target: T28, DRAK1 (Homo sapiens, UniProt Q9UEE5); assay type: binding; conditions: read-out: Percent Control
T28 construct: purchased Eurofins DiscoverX KINOMEscan (scanMAX 468)
T28 sequence (Q9UEE5 whole entry): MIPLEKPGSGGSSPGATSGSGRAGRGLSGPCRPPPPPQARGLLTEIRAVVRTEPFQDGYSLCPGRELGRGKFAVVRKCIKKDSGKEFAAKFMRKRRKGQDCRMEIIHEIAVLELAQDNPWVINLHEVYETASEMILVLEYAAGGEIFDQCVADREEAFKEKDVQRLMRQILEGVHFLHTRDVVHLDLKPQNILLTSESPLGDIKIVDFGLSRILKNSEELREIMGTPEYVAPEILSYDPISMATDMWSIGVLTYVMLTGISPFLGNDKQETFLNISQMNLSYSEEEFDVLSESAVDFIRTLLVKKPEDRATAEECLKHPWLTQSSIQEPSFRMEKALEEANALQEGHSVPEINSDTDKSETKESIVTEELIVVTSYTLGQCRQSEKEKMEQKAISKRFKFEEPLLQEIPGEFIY

[30] = target: T29, KIT (Homo sapiens, UniProt P10721); assay type: binding; conditions: read-out: Percent Control
T29 construct: purchased Eurofins DiscoverX KINOMEscan (scanMAX 468)

[31] = target: T30, CAMKK1 (Homo sapiens, UniProt Q8N5S9); assay type: binding; conditions: read-out: Percent Control
T30 construct: purchased Eurofins DiscoverX KINOMEscan (scanMAX 468)

[32] = target: T31, p38-beta (Homo sapiens, UniProt Q15759); assay type: binding; conditions: read-out: Percent Control
T31 construct: purchased Eurofins DiscoverX KINOMEscan (scanMAX 468)

[33] = target: T32, EGFR (Homo sapiens, UniProt P00533); assay type: binding; conditions: read-out: Percent Control
T32 construct: purchased Eurofins DiscoverX KINOMEscan (scanMAX 468)

[34] = target: T33, PAK1 (Homo sapiens, UniProt Q13153); assay type: binding; conditions: read-out: Percent Control
T33 construct: purchased Eurofins DiscoverX KINOMEscan (scanMAX 468)
T33 sequence (Q13153 whole entry): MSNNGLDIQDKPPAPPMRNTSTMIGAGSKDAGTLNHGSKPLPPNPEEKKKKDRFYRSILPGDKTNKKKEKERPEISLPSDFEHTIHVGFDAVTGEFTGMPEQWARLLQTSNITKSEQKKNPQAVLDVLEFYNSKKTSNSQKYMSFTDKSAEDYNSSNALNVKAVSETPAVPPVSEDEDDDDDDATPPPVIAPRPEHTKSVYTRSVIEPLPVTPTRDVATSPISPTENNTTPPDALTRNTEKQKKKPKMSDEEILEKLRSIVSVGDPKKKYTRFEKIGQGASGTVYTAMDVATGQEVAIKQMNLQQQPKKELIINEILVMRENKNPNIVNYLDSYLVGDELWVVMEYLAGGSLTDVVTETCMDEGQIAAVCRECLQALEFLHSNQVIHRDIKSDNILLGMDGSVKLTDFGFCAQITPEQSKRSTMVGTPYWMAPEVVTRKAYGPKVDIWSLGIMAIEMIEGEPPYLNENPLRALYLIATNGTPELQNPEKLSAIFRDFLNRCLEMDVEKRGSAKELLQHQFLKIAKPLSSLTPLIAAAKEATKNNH

[35] = target: T34, TRPM6 (Homo sapiens, UniProt Q9BX84); assay type: binding; conditions: read-out: Percent Control
T34 construct: purchased Eurofins DiscoverX KINOMEscan (scanMAX 468)
T34 sequence (Q9BX84 whole entry): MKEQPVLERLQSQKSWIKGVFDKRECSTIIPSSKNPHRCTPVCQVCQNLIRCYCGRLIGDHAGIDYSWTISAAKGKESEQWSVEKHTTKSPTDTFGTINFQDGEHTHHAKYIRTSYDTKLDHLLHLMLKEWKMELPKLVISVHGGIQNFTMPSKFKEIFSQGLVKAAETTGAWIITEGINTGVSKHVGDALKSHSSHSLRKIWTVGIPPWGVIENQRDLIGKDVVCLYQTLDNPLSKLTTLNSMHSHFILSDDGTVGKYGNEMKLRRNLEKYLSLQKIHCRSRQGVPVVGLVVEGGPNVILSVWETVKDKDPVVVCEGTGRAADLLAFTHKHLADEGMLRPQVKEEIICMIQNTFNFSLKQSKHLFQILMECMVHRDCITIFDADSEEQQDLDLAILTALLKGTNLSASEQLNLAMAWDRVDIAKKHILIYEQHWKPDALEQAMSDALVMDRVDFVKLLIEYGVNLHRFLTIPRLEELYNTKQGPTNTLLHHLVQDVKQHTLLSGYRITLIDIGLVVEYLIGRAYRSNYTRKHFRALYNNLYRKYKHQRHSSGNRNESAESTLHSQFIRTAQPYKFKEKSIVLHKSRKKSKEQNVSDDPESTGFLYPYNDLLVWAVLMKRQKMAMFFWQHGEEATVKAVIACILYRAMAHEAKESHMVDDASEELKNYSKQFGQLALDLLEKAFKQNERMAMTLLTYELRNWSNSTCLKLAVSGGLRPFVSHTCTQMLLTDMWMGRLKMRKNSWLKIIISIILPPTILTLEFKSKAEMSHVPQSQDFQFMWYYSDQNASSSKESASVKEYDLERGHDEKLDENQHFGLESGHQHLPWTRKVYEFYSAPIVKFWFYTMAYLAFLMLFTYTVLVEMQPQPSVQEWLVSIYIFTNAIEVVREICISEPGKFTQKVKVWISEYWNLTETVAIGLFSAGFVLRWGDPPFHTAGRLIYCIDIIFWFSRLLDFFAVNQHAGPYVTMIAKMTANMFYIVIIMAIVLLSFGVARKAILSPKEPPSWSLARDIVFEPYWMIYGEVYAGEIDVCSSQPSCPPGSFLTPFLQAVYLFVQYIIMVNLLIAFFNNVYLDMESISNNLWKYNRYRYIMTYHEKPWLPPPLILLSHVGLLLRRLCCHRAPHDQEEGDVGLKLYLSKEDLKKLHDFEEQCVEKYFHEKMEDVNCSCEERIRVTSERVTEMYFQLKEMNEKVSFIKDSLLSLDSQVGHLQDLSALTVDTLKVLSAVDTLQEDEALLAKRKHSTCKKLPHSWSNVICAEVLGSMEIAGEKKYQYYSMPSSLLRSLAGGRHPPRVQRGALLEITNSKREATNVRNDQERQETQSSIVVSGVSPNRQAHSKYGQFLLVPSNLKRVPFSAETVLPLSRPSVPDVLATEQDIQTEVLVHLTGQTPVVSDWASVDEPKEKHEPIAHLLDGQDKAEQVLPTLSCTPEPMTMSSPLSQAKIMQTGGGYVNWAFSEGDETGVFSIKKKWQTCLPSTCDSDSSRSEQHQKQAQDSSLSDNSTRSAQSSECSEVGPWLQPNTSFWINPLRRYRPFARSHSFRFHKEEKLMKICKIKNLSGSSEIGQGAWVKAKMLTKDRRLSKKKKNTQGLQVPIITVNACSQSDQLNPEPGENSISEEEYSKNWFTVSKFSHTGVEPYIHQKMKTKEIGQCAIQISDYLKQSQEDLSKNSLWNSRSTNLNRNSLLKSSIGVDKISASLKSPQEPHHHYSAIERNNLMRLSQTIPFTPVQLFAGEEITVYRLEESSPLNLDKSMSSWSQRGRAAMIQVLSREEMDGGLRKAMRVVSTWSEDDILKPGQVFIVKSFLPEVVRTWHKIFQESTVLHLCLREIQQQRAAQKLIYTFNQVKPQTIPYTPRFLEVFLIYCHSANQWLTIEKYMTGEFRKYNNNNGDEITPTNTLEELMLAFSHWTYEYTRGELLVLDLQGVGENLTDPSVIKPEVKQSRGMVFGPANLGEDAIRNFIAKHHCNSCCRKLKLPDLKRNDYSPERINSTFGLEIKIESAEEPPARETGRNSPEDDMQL

[36] = target: T35, BRAF (Homo sapiens, UniProt P15056); assay type: binding; conditions: read-out: Percent Control
T35 construct: purchased Eurofins DiscoverX KINOMEscan (scanMAX 468)

[37] = target: T36, GRK4 (Homo sapiens, UniProt P32298); assay type: binding; conditions: read-out: Percent Control
T36 construct: purchased Eurofins DiscoverX KINOMEscan (scanMAX 468)

[38] = target: T37, ABL1(Q252H)-nonphosphorylated (Homo sapiens, UniProt P00519, Q252H); assay type: binding; conditions: read-out: Percent Control
T37 construct: purchased Eurofins DiscoverX KINOMEscan (scanMAX 468)

[39] = target: T38, SRC (Homo sapiens, UniProt P12931); assay type: binding; conditions: read-out: Percent Control
T38 construct: purchased Eurofins DiscoverX KINOMEscan (scanMAX 468)

[40] = target: T39, NIM1 (Homo sapiens, UniProt Q8IY84); assay type: binding; conditions: read-out: Percent Control
T39 construct: purchased Eurofins DiscoverX KINOMEscan (scanMAX 468)

[41] = target: T40, p38-delta (Homo sapiens, UniProt O15264); assay type: binding; conditions: read-out: Percent Control
T40 construct: purchased Eurofins DiscoverX KINOMEscan (scanMAX 468)
T40 sequence (O15264 whole entry): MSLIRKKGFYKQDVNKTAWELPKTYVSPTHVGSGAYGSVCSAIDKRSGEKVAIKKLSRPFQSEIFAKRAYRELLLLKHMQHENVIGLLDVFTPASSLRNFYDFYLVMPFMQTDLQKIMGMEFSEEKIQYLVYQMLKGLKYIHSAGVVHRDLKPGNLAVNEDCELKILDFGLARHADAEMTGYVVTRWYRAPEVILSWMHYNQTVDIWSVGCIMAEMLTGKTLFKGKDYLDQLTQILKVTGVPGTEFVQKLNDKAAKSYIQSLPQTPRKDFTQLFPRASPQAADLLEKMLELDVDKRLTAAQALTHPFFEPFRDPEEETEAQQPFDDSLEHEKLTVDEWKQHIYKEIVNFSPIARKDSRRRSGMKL

[42] = target: T41, AKT3 (Homo sapiens, UniProt Q9Y243); assay type: binding; conditions: read-out: Percent Control
T41 construct: purchased Eurofins DiscoverX KINOMEscan (scanMAX 468)

T2 sequence (Q9NY57 whole entry): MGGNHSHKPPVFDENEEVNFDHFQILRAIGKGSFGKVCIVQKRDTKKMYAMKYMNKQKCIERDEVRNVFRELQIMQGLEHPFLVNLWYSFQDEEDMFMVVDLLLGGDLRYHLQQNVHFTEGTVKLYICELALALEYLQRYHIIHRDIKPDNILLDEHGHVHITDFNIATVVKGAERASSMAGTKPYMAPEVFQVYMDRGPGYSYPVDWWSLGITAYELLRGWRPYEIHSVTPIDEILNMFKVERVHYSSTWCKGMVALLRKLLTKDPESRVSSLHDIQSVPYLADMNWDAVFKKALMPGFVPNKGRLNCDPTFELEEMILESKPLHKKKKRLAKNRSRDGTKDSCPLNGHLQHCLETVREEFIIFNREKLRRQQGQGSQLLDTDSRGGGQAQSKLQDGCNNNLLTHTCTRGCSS

Cc1ccc(-n2cc(COc3cccc4cnc(Nc5cccc(Cl)c5)nc34)nn2)c([N+](=O)[O-])c1 [DB18]
remaining binding at 1 µM [1]: 100% | remaining binding at 1 µM [2]: 100% | remaining binding at 1 µM [3]: 100% | remaining binding at 1 µM [4]: 86% | remaining binding at 1 µM [5]: 100% | Percent Control [6]: 94 % Ctrl | remaining binding at 1 µM [7]: 100% | remaining binding at 1 µM [8]: 100% | remaining binding at 1 µM [9]: 100% | remaining binding at 1 µM [10]: 100% | remaining binding at 1 µM [11]: 100% | remaining binding at 1 µM [12]: 100% | remaining binding at 1 µM [13]: 92% | remaining binding at 1 µM [14]: 99% | remaining binding at 1 µM [15]: 100% | remaining binding at 1 µM [16]: 98% | remaining binding at 1 µM [17]: 100% | remaining binding at 1 µM [18]: 100% | remaining binding at 1 µM [19]: 71% | remaining binding at 1 µM [20]: 99% | remaining binding at 1 µM [21]: 100% | remaining binding at 1 µM [22]: 100% | remaining binding at 1 µM [23]: 82% | remaining binding at 1 µM [24]: 100% | remaining binding at 1 µM [25]: 100% | remaining binding at 1 µM [26]: 98% | remaining binding at 1 µM [27]: 94% | remaining binding at 1 µM [28]: 99% | remaining binding at 1 µM [29]: 100% | remaining binding at 1 µM [30]: 100% | remaining binding at 1 µM [31]: 100% | remaining binding at 1 µM [32]: 100% | remaining binding at 1 µM [33]: 97% | remaining binding at 1 µM [34]: 100% | remaining binding at 1 µM [35]: 91% | remaining binding at 1 µM [36]: 93% | remaining binding at 1 µM [37]: 100% | remaining binding at 1 µM [38]: 88% | remaining binding at 1 µM [39]: 100% | remaining binding at 1 µM [40]: 100% | remaining binding at 1 µM [41]: 100% | remaining binding at 1 µM [42]: 100%

— publication PMC9571063 (Molecules, 2022)
